Source: patent publication US20260365664A1, “HARRINGTONINE DERIVATIVE, PHARMACEUTICAL COMPOSITION THEREOF, PREPARATION METHOD THEREFOR, AND USE THEREOF” (NANKAI UNIVERSITY, priority 2022, published 2026)
pIC50: −log10 of the molar value.

Experiments:
Format in all cases: cell-based
[1] = test system: human breast cancer cell MCF-7; assay: MTT in vitro cell growth inhibition, human breast cancer cell MCF-7 (48 h); settings: MCF7, MCF-7 cells
Procedure: (§1) Human breast cancer cell MCF-7, hepatocellular carcinoma cell HepG2, lung adenocarcinoma cell A549 were purchased from Shanghai Cell Bank of Chinese Academy of Sciences. Human leukemia cells HL-60, human leukemia cells adriamycin-resistant strain HL-60/ADR, and human glioblastoma cells U-87MG were purchased from Shanghai Chuanqiu Biotechnology Co. Human cervical cancer HeLa was purchased from Shanghai Jikai Gene Chemistry Technology Co. Human colon cancer cells HCT-116, human brain microvascular endothelial cells hCMEC/D3 were preserved by Tianjin Suntech Pharmaceutical Technology Co. Human colon cancer cells Sw620 and human colon cancer cells LoVo were provided by Tianjin Medical University Hospital.
(§2) Human breast cancer cell MCF-7, hepatocellular carcinoma cell HepG2, lung adenocarcinoma cell A549, human leukemia cell HL-60, human leukemia cell adriamycin-resistant strain HL-60/ADR, human glioblastoma cell U-87MG, human cervical carcinoma cell HeLa, human colon carcinoma cell HCT-116, human colon carcinoma cell Sw620, human colon carcinoma cell LoVo, Human brain microvascular endothelial cells HCMEC/D3 were cultured using DMEM medium. The medium was supplemented with 10% fetal bovine serum and 1% double antibody (penicillin+streptomycin), and the culture environment was an incubator filled with 5% CO2 at a temperature of 37 °C, when the cells basically grew all over the bottom of the dish (about 80%-90%), passaging culture was performed.
(§3) Preparation of MTT solution: Weigh 50 mg of MTT, dissolve it in 10 mL of phosphate buffer solution (PBS), dispense it, and store it at 4 °C away from light, it will be effective within two weeks.
(§4) Take the series of compounds diluted with medium to form 1 mg/ml master batch, before use, precise aspiration of the appropriate amount of sample master batch diluted with medium to form working solutions with different concentration gradients, such as 100 μg/ml, 10 μg/ml, 1 μg/ml, 0.1 μg/ml, 0.01 μg/ml, 0.001 μg/ml and so on.
(§5) 1. Take log phase cells, digest, centrifuge and resuspend. The cell density was adjusted to 1×10^5 cells/mL by adding culture medium, and 100 μl of prepared cell suspension per well was added and inoculated into 96-well cell culture plates, after which they were placed in a cell culture incubator for incubation.
(§6) 2. After 24 h of culture, the test group was added 2 μl of the series of compounds with concentrations of 100 μg/ml, 10 μg/ml, 1 μg/ml, 0.1 μg/ml, 0.01 μg/ml, 0.001 μg/ml, and 4 replicate wells were set up for each concentration, as well as a positive control group (etoposide) and a blank control group.
(§7) 3. The 96-well plates were incubated separately for 48 h and then 20 μl of MTT solution (concentration of 5 mg/ml) was added to each well and incubation was continued for 4 hours in the incubator.
(§8) 4. Remove the 96-well plate from the incubator, carefully aspirate the medium in the wells with a micropipette, and add 150 μl of dimethyl sulfoxide to each well, shake to dissolve the crystals completely, and then measure the absorbance OD value using an enzyme counter at 492 nm.
(§9) 5. The test was repeated three times consecutively and the cell inhibition rate was calculated according to the following formula: cell inhibition rate (%)=[1−OD value of the test group/OD of the blank control group)]×100%, and the IC50 value of the half inhibitory concentration of the samples for inhibiting cell growth was calculated.

[2] = test system: hepatocellular carcinoma cell HepG2; assay: MTT in vitro cell growth inhibition, hepatocellular carcinoma cell HepG2 (48 h); settings: Homo sapiens, HepG2 cells
Procedure: as §1, §2, §3, §4, §5, §6, §7, §8, §9

[3] = test system: human colon cancer cells Sw620; assay: MTT in vitro cell growth inhibition, human colon cancer cells Sw620 (48 h); settings: SW-620
Procedure: as §1, §2
(§10) Preparation of MTT solution: Weigh 50 mg of MTT, dissolve it in 10 mL of phosphate buffer solution (PBS), dispense it, and store it at 4 °C away from light, it will be effective within two weeks. […]
(§11) 4. Remove the 96-well plate from the incubator, carefully aspirate the medium in the wells with a micropipette, and add 150 μl of dimethyl sulfoxide to each well, shake to dissolve the crystals completely, and then measure the absorbance OD value using an enzyme counter at 492 nm. […]

[4] = test system: human leukemia cells HL-60; assay: MTT in vitro cell growth inhibition, human leukemia cells HL-60 (48 h); settings: HL-60 cells
Procedure: as §1, §2, §3, §4, §5, §6, §7, §8, §9

[5] = test system: lung adenocarcinoma cell A549; assay: MTT in vitro cell growth inhibition, lung adenocarcinoma cell A549 (48 h); settings: Homo sapiens, A549 cells
Procedure: as §1, §2, §3, §4, §5, §6, §7, §8, §9

[6] = test system: human colon cancer cells LoVo; assay: MTT in vitro cell growth inhibition, human colon cancer cells LoVo (48 h)
Procedure: as §1, §2, §10, §11

[7] = test system: human cervical cancer HeLa; assay: MTT in vitro cell growth inhibition, human cervical cancer HeLa (48 h); settings: HeLa cells
Procedure: as §1, §2, §10, §11

[8] = test system: human colon cancer cells HCT-116; assay: MTT in vitro cell growth inhibition, human colon cancer cells HCT-116 (48 h); settings: HCT116 cells
Procedure: as §1, §2, §3, §4, §5, §6, §7, §8, §9

[9] = test system: human brain microvascular endothelial cells hCMEC/D3; assay: MTT in vitro cell growth inhibition, human brain microvascular endothelial cells hCMEC/D3 (48 h)
Procedure: as §1, §2, §3, §4, §5
2. […]
as §11

Structure (SMILES) | pIC50 [1] | pIC50 [2] | pIC50 [4] | pIC50 [5] | other results
COC(=O)C[C@](O)(CCc1cccc(NC(=O)Nc2ccc(C)cc2)c1)C(=O)O[C@@H]1C(OC)=C[C@]23CCCN2CCc2cc4c(cc2[C@H]13)OCO4 [Compound I-1-1] | 8.37 | 7.60 | – | – | –
COC(=O)C[C@](O)(CCc1cccc(NC(=O)NC2CCCC2)c1)C(=O)O[C@@H]1C(OC)=C[C@]23CCCN2CCc2cc4c(cc2C13)OCO4 (stereo partly drawn) [Compound I-1-2] | 9.30 | 7.85 | 8.11 | 7.15 | pIC50 [3]: 7.92; pIC50 [6]: 7.24
COC(=O)C[C@](O)(CCc1cccc(NC(=O)NC2CCCCC2)c1)C(=O)O[C@@H]1C(OC)=C[C@]23CCCN2CCc2cc4c(cc2C13)OCO4 (stereo partly drawn) [Compound I-1-9] | – | – | 8.05 | – | –
COC(=O)C[C@](O)(CCc1cccc(NC(=O)Nc2ccc(OC)cc2)c1)C(=O)O[C@@H]1C(OC)=C[C@]23CCCN2CCc2cc4c(cc2C13)OCO4 (stereo partly drawn) [Compound I-1-22] | – | – | 7.87 | – | –
COC(=O)C[C@@](O)(CCc1cccc([N+](=O)[O-])c1)C(=O)O[C@@H]1C(OC)=C[C@]23CCCN2CCc2cc4c(cc2C13)OCO4 (stereo partly drawn) [Compound I-2-2] | 7.85 | 7.54 | – | – | –
COC(=O)C[C@](O)(CCc1cccc(N)c1)C(=O)O[C@@H]1C(OC)=C[C@]23CCCN2CCc2cc4c(cc2[C@H]13)OCO4 [Compound I-2-5] | 7.96 | 7.40 | 8.51 | – | –
COC(=O)C[C@](O)(CCc1cccc(NC(C)=O)c1)C(=O)O[C@@H]1C(OC)=C[C@]23CCCN2CCc2cc4c(cc2[C@H]13)OCO4 [Compound I-2-9] | 7.47 | 7.32 | 8.48 | – | –
COC(=O)C[C@](O)(CCCC(F)(F)F)C(=O)O[C@@H]1C(OC)=C[C@]23CCCN2CCc2cc4c(cc2[C@H]13)OCO4 [Compound I-2-29] | – | – | – | 7.21 | pIC50 [7]: 7.60
COC(=O)C[C@](O)(CCC(F)(F)C(F)(F)F)C(=O)O[C@@H]1C(OC)=C[C@]23CCCN2CCc2cc4c(cc2[C@H]13)OCO4 [Compound I-2-30] | – | – | – | 7.68 | pIC50 [7]: 7.55
COC(=O)C[C@](O)(CCc1cccc(F)c1F)C(=O)O[C@@H]1C(OC)=C[C@]23CCCN2CCc2cc4c(cc2[C@H]13)OCO4 [Compound I-2-35] | 6.96 | 7.64 | – | 7.22 | –
COC(=O)C[C@](O)(CCc1ccccc1C(F)(F)F)C(=O)O[C@@H]1C(OC)=C[C@]23CCCN2CCc2cc4c(cc2[C@H]13)OCO4 [Compound I-2-38] | 6.66 | 7.12 | – | 6.54 | –
COC(=O)C[C@](O)(CCc1ccc(SC)cc1)C(=O)O[C@@H]1C(OC)=C[C@]23CCCN2CCc2cc4c(cc2[C@H]13)OCO4 [Compound I-2-41] | 7.22 | 8.00 | – | 6.82 | –
COC(=O)C[C@](O)(CCc1cccc2ccccc12)C(=O)O[C@@H]1C(OC)=C[C@]23CCCN2CCc2cc4c(cc2[C@H]13)OCO4 [Compound I-2-43] | – | 7.82 | – | – | –
COC(=O)C[C@](O)(CCc1ccc2ccccc2c1)C(=O)O[C@@H]1C(OC)=C[C@]23CCCN2CCc2cc4c(cc2[C@H]13)OCO4 [Compound I-2-44] | 7.19 | 7.02 | 8.06 | 7.70 | –
COC(=O)C[C@](O)(CCc1ccc(OC)cc1)C(=O)O[C@@H]1C(OC)=C[C@]23CCCN2CCc2cc4c(cc2[C@H]13)OCO4 [Compound I-2-45] | 7.05 | 7.77 | – | 6.68 | –
COC1=C[C@]23CCCN2CCc2cc4c(cc2[C@@H]3[C@@H]1OC(=O)C(O)(CCC(C)C)CC(=O)SC)OCO4 (stereo partly drawn) [Compound I-2-52] | – | – | – | – | pIC50 [8]: 7.34
COC1=C[C@]23CCCN2CCc2cc4c(cc2[C@@H]3[C@@H]1OC(=O)C(O)(C/C=N\OC(C)=O)CCC(C)C)OCO4 (stereo partly drawn) [Compound I-3-13] | – | – | 7.74 | 7.35 | pIC50 [8]: 7.80
CCCCC(O)(C/C=N\OC(C)=O)C(=O)O[C@@H]1C(OC)=C[C@]23CCCN2CCc2cc4c(cc2[C@H]13)OCO4 (stereo partly drawn) [Compound I-3-14] | – | – | – | 7.36 | pIC50 [8]: 7.16
COC1=C[C@]23CCCN2CCc2cc4c(cc2[C@@H]3[C@@H]1OC(=O)C(O)(C/C=N/OC(C)=O)CCC=C(C)C)OCO4 (stereo partly drawn) [Compound I-3-15] | – | – | – | 7.08 | –
C=CC(=O)O/N=C/CC(O)(CCC(C)C)C(=O)O[C@@H]1C(OC)=C[C@]23CCCN2CCc2cc4c(cc2[C@H]13)OCO4 (stereo partly drawn) [Compound I-3-22] | – | – | – | 7.41 | pIC50 [8]: 7.32
COC1=C[C@]23CCCN2CCc2cc4c(cc2[C@@H]3[C@@H]1OC(=O)C(O)(C/C=N\OC(=O)C(C)C)CCC(C)C)OCO4 (stereo partly drawn) [Compound I-3-23] | – | – | 7.47 | 7.68 | pIC50 [8]: 7.15
CCCCC(O)(C/C=N\OC(=O)C(C)C)C(=O)O[C@@H]1C(OC)=C[C@]23CCCN2CCc2cc4c(cc2[C@H]13)OCO4 (stereo partly drawn) [Compound I-3-24] | – | – | 7.17 | 7.44 | pIC50 [9]: 6.61; pIC50 [8]: 7.62
COC1=C[C@]23CCCN2CCc2cc4c(cc2[C@@H]3[C@@H]1OC(=O)C(O)(C/C=N\OC(=O)C(C)C)CCC=C(C)C)OCO4 (stereo partly drawn) [Compound I-3-25] | – | – | – | 7.04 | –
COC1=C[C@]23CCCN2CCc2cc4c(cc2[C@@H]3[C@@H]1OC(=O)C(O)(C/C=N/OC(=O)[C@H](C)c1ccc2cc(OC)ccc2c1)CCC(C)C)OCO4 (stereo partly drawn) [Compound I-3-31] | – | – | 7.70 | 7.68 | pIC50 [3]: 8.47; pIC50 [9]: 7.62; pIC50 [6]: 7.35
COC1=C[C@]23CCCN2CCc2cc4c(cc2[C@@H]3[C@@H]1OC(=O)C(O)(C/C=N/OC(=O)[C@H](C)c1ccc2cc(OC)ccc2c1)CCc1ccc2c(c1)CCO2)OCO4 (stereo partly drawn) [Compound I-3-34] | – | – | – | 6.55 | pIC50 [8]: 7.59
COC1=C[C@]23CCCN2CCc2cc4c(cc2[C@@H]3[C@@H]1OC(=O)C(O)(C/C=N/OC(=O)NC1CCCC1)CCC(C)C)OCO4 (stereo partly drawn) [Compound I-3-46] | – | – | 7.38 | 7.28 | pIC50 [9]: 7.22
COC(=O)C[C@](O)(CCCC(C)(C)O)C(=O)O[C@@H]1C(OC)=C[C@]23CCCN2CCc2cc4c(cc2[C@H]13)OCO4 [HHT, homoharringtonine, reference compound] | 7.40 | 7.66 | 7.40 | 6.72 | pIC50 [3]: 7.46; pIC50 [9]: 6.77; pIC50 [8]: 7.59; pIC50 [6]: 6.47; pIC50 [7]: 7.47
